A short description of data set [1]: Solubility of taurolidine in water. It counts as physicochemical. Particulars: room temperature. An excerpt:
The preferred active substances are methylol transfer agents such as taurolidine, taurultam, mixtures thereof or equilibriums thereof. Where taurolidine and/or taurultam is used, its concentration in the aqueous solution absorbed in the gel is preferably 0.5% to 5% by weight, e.g. about 1 to 4%. Where the gel is in the form of a granulate, 2-4% by weight taurolidine and/or taurultam is preferred, more preferably, 4% taurolidine and/or taurultam by weight. Taurolidine is only about 2-3% soluble in water at room temperature, so that at higher concentrations, some material will be present as a suspension of, for example, fine taurolidine crystals.

For data set [2], the system named is osteosarcoma cell lines SAOS-2 (HTB-85), U2OS (HTB-96), HOS, 143B, LM5, Hu09 WT, Hu09H3, Hu09 L13, MG-63 and MG-63 M8. As to the kind of experiment: Taurolidine tested against 10 osteosarcoma cell lines. The class given is cell-based. The protocol: Taurolidine was tested against 10 oestosarcoma cell lines at concentrations of 50, 100 and 200 uM taurolidine. The cell lines were SAOS-2 (HTB-85), U2OS (HTB-96), HOS, 143B, LM5, Hu09 WT, Hu09H3, Hu09 L13, MG-63 and MG-63 M8.

Turning to `O=S1(=O)CCN(CN2CCS(=O)(=O)NC2)CN1` [Taurolidine, taurolidine], the soluble in water in data set [1] is reported as 2-3%. In data set [2] (50, 100 and 200 uM taurolidine), the apoptotic cells entry is “dose-dependent increase in apoptic cells”. Also, the “inhibition of osteosarcoma cell lines” value in data set [2] (50, 100 and 200 uM taurolidine, 10 cell lines) is “inhibited all osteosarcoma cell lines tested”. The mechanism of apoptosis result in data set [2] (osteosarcoma cell lines) is “caspase-dependent”.

The values above are taken from patent US20100040667A1, “METHOD OF TREATING BONE CANCER” (ED. GEISTLICH SOEHNE AG FUER CHEMISCHE INDUSTRIE, priority 2006, published 2010).
